Source: patent publication US8470594B2, “Methods for identifying agents that affect the survival of motor neurons” (President and Fellows of Harvard College, priority 2008, dated 2013)

B1: GMFb: glial maturation factor beta, shown to induce a pro-inflammatory state in astrocytes; from Peprotech (protein, UniProt Q9CQI3 2-142, looked up)
Glia maturation factor beta: SESLVVCDVAEDLVEKLRKFRFRKETHNAAIIMKIDKDERLVVLDEELEGVSPDELKDELPERQPRFIVYSYKYQHDDGRVSYPLCFIFSSPVGCKPEQQMMYAGSKNKLVQTAELTKVFEIRNTEDLTEEWLREKLGFFH
B2: Mcp2: cytokine over expressed in mutant glia; from Peprotech (protein, UniProt Q9Z121 24-97, looked up)
C-C motif chemokine 8: GPDKAPVTCCFHVLKLKIPLRVLKSYERINNIQCPMEAVVFQTKQGMSLCVDPTQKWVSEYMEILDQKSQILQP

These molecules were tested on Hb9::GFP human ES cell-derived motor neurons (assay: Survival of Hb9::GFP human ES cell-derived motor neurons in co-culture with non-transgenic (WT) glia). Details: non-transgenic (WT) mouse glia pretreated 1 day, 20 days of treatment; MCP2, Cxc17, Rantes 100 ng/ml; GMFb 250 ng/ml; PGD2 10 μM; Shh agonist 11M [sic]; n=3.
Type: cell-based
Method: (§1) Differentiation of human Embryonic Stem Cells into motor neurons. For differentiation into motor neurons, the cells were allowed to reach 80-90% confluency, washed once with PBS, and then incubated for 15 minutes at 37° C. in a solution of 1 g/L Collagenase IV (GIBCO) in DMEM-F12 (GIBCO).
After 24 hours, the cells had aggregated to form embryoid bodies (EBs), and the media was changed to remove debris by centrifuging the EBs and resuspending in fresh in human ES cell media without bFGF2 or plasmanate in low attachment 6-well plates. EBs were cultured as such for 13 more days, with half of the media changed every two days, and a complete media change every week. After 14 days, the EBs were induced toward a caudal and ventral identity using retinoic acid (1 μM, Sigma) and an agonist of the Shh signaling pathway (1 μM) in N2 media: 1:1 DMEM:F-12+Glutamate (Gibco), 10,000 units Penicillin and 1 mg/mL Streptomicin (Gibco), 1% N2 Supplement (Gibco), 0.2 mM ascorbic acid (Sigma-Aldrich), 0.16% D-(+)-Glucose (Sigma-Aldrich), BDNF (10 ng/ml, R&D Systems), for another 14 days. The EBs were then matured for a final 14 days in N2 media with GNDF (10 ng/mL, R&D Systems). After 42 days of differentiation, the EBs were dissociated. To dissociate the EBs, they were centrifuged at 1000 rpm for 5 min in a 15 ml falcon tube, and then washed once with PBS to eliminate residual media. The EBs were then incubated for 60 minutes at 37° C. in Earle's Balanced Salt Solution with 20 units of papain and 1000 units of Deoxyribonuclease I (Worthington Biochemical Corporation). EBs were triturated using a 2 mL serological pipette every 15-20 minutes during this incubation. When an almost single cell suspension was achieved, the cells were centrifuged for 5 minutes at 1000 RPM. The resulting cell pellet was washed once with PBS and then resuspended in N2 media with neurotrophic factors (GDNF, and BDNF (10 ng/ml, R&D Systems)). These cells were then counted and plated on Poly-D-Lysine/Laminin CultureSlides (BD biosciences) or on a layer of primary glial cells. Depending on the experiment, motor neurons or interneurons were counted 10 or 20 days after plating.
Primary Glial Cultures. P1-P3 mouse pups transgenic for SOD1G93A, SOD1WT or non-transgenic pups were sacrificed by using an approved method of euthanasia. Under a dissection microscope, the parenquima were isolated and the meninges were carefully stripped away with fine forceps. The tissue was then dissected into small pieces and transferred to a solution containing 12 ml of HBSS, 1.5 ml of trypsin (GIBCO) and 1% DNAse (Sigma) and incubated at 37° C. for 15 min, swirling the mixture periodically. The supernatant containing the dissociated cells was then collected and 3 ml of serum was added to inhibit trypsin activity.
The cells were then centrifuged at 1000 rpm for 5 min, resuspended in Glia medium: (Minimun Essential Medium with Earl's salts (GIBCO), D-(+)-Glucose 20% (Sigma), Penicillin-streptomycin (GIBCO), 10% Horse Serum (GIBCO)) and plated at the concentration of 80,000 cells per mL in T75 flasks (Falcon). After the glia reached confluency, they were replated onto Poly-D-Lysine/Laminin CultureSlides (BD biosciences).
Non-transgenic glia were individually pretreated for 1 day with either one of the three cytokines MCP2, Cxc17, or Rantes; with GMFb; an agonist of SHH pathway; or with PGD2.

With `CCCCC[C@H](O)/C=C/[C@H]1C(=O)C[C@H](O)[C@@H]1C/C=C\CCCC(=O)O` [PGD2, prostaglandin D2] as the molecule, how does the “number of GFP positive motor neurons compared to the control condition” value (from here on “number … compared to the control condition”) read?
Its value is 19%+/−2%.

Which “number … compared to the control condition” value does the source give for `CNC1CCC(N(Cc2cccc(-c3ccncc3)c2)C(=O)c2sc3ccccc3c2Cl)CC1` (stereo not drawn) [SHH agonist] here?
The value was 97%+/−12%.

How did the “number … compared to the control condition” value turn out when Rantes was run?
The value was 108%+/−20%.

Which “number … compared to the control condition” value does the source give for B1 here?
The value was 95%+/−9%.

For B2, which “number … compared to the control condition” value is on record?
The value was 103%+/−8%.

These molecules were tested on Hb9::GFP human ES cell-derived motor neurons (assay: not given). Details: SOD1G93A glia pretreated 1 day, MK 0524 10 μM, 20 days; p<0.05; n=3.
Method: as §1
After 24 hours, the cells had aggregated to form embryoid bodies (EBs), and the media was changed to remove debris by centrifuging the EBs and resuspending in fresh in human ES cell media without bFGF2 or plasmanate in low attachment 6-well plates. EBs were cultured as such for 13 more days, with half of the media changed every two days, and a complete media change every week. After 14 days, the EBs were induced toward a caudal and ventral identity using retinoic acid (1 μM, Sigma) and an agonist of the Shh signaling pathway (1 μM) in N2 media: 1:1 DMEM:F-12+Glutamate (Gibco), 10,000 units Penicillin and 1 mg/mL Streptomicin (Gibco), 1% N2 Supplement (Gibco), 0.2 mM ascorbic acid (Sigma-Aldrich), 0.16% D-(+)-Glucose (Sigma-Aldrich), BDNF (10 ng/ml, R&D Systems), for another 14 days. […] These cells were then counted and plated on Poly-D-Lysine/Laminin CultureSlides (BD biosciences) or on a layer of primary glial cells. Depending on the experiment, motor neurons or interneurons were counted 10 or 20 days after plating. […]

`CS(=O)(=O)c1cc(F)cc2c3c(n(Cc4ccc(Cl)cc4)c12)[C@@H](CC(=O)O)CC3` [MK 0524] was tested. Which “increase in the number of GFP positive neurons relative to untreated neurons plated on the same glia” value did it give?
The value was 32%.
